Results taken from ChEMBL document CHEMBL4316582, “Nitro-Group-Containing Drugs” (J Med Chem, 2019).
≈ marks a conversion by molar mass, not a printed value.

Key:
[1] = test system: SK-OV-3; assay: Cytotoxicity against human SKOV3 cells; assay type: functional, cell-based
[2] = test system: NCI-H460; assay: Antiproliferative activity against human NCI-H460 cells; assay type: functional, cell-based
[3] = test system: NCI-H460; assay: Antiproliferative activity against human NCI-H460 cells in presence of O2; assay type: functional, cell-based
[4] = test system: NCI-H460; assay: Antiproliferative activity against human NCI-H460 cells in presence of N2; assay type: functional, cell-based
[5] = test system: NCI-H460; assay: Cytotoxicity against human NCI-H460 cells assessed as reduction in cell viability after 2 hrs by Alamar blue assay; assay type: functional, cell-based; details: NCI-H460, 2 h
[6] = test system: HT-29; assay: Cytotoxicity against human HT-29 cells assessed as reduction in cell viability after 2 hrs by Alamar blue assay; assay type: functional, cell-based; details: HT-29, 2 h
[7] = molecular target: Epidermal growth factor receptor (Homo sapiens, UniProt P00533); assay: Inhibition of erbB1 (unknown origin) using FRET-capable peptide substrate by FRET assay
Sequence of Epidermal growth factor receptor (P00533 whole entry): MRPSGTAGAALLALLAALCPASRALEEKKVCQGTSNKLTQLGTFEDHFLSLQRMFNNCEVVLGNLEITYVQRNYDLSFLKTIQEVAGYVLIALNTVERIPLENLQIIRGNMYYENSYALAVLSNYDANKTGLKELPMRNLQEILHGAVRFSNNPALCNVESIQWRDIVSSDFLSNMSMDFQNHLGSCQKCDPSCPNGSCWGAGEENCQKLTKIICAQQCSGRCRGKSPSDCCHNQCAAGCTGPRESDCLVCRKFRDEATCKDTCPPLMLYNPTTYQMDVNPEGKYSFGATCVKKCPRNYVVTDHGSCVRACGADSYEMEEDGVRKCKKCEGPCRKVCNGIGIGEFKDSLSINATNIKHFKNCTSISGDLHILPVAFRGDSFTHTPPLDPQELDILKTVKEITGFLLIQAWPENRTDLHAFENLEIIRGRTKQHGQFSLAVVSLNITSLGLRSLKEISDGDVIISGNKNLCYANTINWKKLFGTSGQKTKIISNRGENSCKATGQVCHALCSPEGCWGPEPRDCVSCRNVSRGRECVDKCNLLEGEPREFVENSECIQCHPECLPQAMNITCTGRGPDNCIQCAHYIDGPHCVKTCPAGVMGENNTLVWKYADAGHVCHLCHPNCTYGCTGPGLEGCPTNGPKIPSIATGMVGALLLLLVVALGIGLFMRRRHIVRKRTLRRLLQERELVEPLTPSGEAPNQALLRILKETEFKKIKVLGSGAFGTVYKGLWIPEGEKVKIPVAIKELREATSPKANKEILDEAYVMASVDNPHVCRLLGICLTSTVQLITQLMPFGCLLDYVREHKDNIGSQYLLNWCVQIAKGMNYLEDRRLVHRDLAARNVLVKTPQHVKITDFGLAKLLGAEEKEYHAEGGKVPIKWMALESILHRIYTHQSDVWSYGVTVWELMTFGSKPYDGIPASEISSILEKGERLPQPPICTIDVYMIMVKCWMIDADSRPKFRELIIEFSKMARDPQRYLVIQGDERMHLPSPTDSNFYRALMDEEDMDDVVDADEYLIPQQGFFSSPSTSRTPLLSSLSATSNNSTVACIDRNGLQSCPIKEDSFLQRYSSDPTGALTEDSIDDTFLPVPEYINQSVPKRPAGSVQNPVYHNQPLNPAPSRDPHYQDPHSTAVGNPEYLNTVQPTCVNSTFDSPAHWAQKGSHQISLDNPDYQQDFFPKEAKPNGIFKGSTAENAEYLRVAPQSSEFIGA

[8] = Cytotoxicity against human MiaPaCa cells assessed as reduction in cell viability after 2 hrs by Alamar blue assay; assay type: functional, cell-based; details: MIA PaCa-2, 2 h
[9] = test system: Mycobacterium tuberculosis; assay: Antitubercular activity against Mycobacterium tuberculosis; assay type: functional
[10] = test system: Mycobacterium tuberculosis; assay: Antitubercular activity against drug-sensitive Mycobacterium tuberculosis; assay type: functional
[11] = test system: NCI-H460; assay: Cytotoxicity against human NCI-H460 cells assessed as reduction in cell viability after 2 hrs under hypoxic conditions by Alamar blue assay; assay type: functional, cell-based; details: NCI-H460, 2 h
[12] = test system: NCI-H460; assay: Cytotoxicity against human NCI-H460 cells assessed as reduction in cell viability after 2 hrs under normoxic conditions by Alamar blue assay; assay type: functional, cell-based; details: NCI-H460, 2 h
[13] = test system: NCI-H460; assay: Ratio of IC50 for antiproliferative activity against human NCI-H460 cells in presence of O2 to antiproliferative activity against human NCI-H460 cells in presence of N2; assay type: functional
[14] = test system: Hep 3B2; assay: Cytotoxicity against human Hep3B cells after 24 hrs under hypoxic condition by MTS assay; assay type: functional, cell-based
[15] = test system: Hep 3B2; assay: Cytotoxicity against human Hep3B cells after 24 hrs by MTS assay; assay type: functional, cell-based
[16] = molecular target: T1, Oxygen-insensitive NAD(P)H nitroreductase (Escherichia coli K-12, UniProt P38489); assay: Susbtrate activity at Escherichia coli nitroreductase assessed as half life; assay type: ADME
T1 sequence (P38489 whole entry): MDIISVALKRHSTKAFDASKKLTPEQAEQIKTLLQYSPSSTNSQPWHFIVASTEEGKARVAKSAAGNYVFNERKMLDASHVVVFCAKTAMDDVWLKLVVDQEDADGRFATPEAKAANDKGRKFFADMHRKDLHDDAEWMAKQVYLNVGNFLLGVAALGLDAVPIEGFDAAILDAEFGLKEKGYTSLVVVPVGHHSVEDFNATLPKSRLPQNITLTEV

[17] = test system: HT-29; assay: Cytotoxicity against human HT-29 cells; assay type: functional, cell-based

SMILES: CC(OP(N)(=O)N(CCCl)CCCl)c1ccc([N+](=O)[O-])cc1 (stereo unspecified)
- IC50 [1]: 1800 nM

SMILES: COc1cc([N+](=O)[O-])ccc1COP(N)(=O)N(CCCl)CCCl (stereo unspecified)
- IC50 [1]: 1800 nM

SMILES: COc1cc(COP(N)(=O)N(CCCl)CCCl)ccc1[N+](=O)[O-] (stereo unspecified)
- IC50 [1]: 3100 nM

SMILES: Cc1cc(COP(N)(=O)N(CCCl)CCCl)ccc1[N+](=O)[O-] (stereo unspecified)
- IC50 [1]: 3300 nM

SMILES: NP(=O)(OCc1ccc([N+](=O)[O-])cc1)N(CCCl)CCCl (stereo unspecified)
- IC50 [1]: 1100 nM

SMILES: COC(=O)c1cc(COP(N)(=O)N(CCCl)CCCl)ccc1[N+](=O)[O-] (stereo unspecified)
- IC50 [1]: 2100 nM

SMILES: Cn1c(COP(=O)(N(CCCl)CCCl)N(CCCl)CCCl)ccc1[N+](=O)[O-]
- IC50 [2]: > 1000 nM
- IC50 [3]: 850 nM
- IC50 [4]: 7 nM

SMILES: CC#Cc1c(OC)ccc2c(C(=O)c3cc(OC)c(OC)c(OC)c3)nn(C[N+](C)(C)Cc3c(CC)nc([N+](=O)[O-])n3C)c12
- IC50 [5]: 42 nM
- IC50 [6]: 9 nM

SMILES: C[N+](C)(C/C=C/C(=O)Nc1ccc2ncnc(Nc3cccc(Br)c3)c2c1)Cc1ccc([N+](=O)[O-])cc1
- IC50 [7]: 0.22 to 0.56 nM

SMILES: CC#Cc1c(OC)ccc2c(C(=O)c3cc(OC)c(OC)c(OC)c3)nn(C[N+](C)(C)Cc3c(-c4ccccc4)nc([N+](=O)[O-])n3C)c12
- IC50 [5]: 12 nM
- IC50 [8]: 16 nM
- IC50 [6]: 6 nM

SMILES: O=[N+]([O-])C1CN2C[C@H](OCc3ccc(OC(F)(F)F)cc3)COC2=N1 (stereo partly specified)
- MIC [9]: < 2.8 µM
- MIC [10]: 0.039 to 0.531 µg/mL (≈ 0.108 to 1.47 µM)

SMILES: [O-]/[N+](O)=C1/CN2C[C@H](OCc3ccc(OC(F)(F)F)cc3)COC2=N1
- MIC [9]: < 2.8 µM
- MIC [10]: 0.039 to 0.531 µg/mL (≈ 0.108 to 1.47 µM)

SMILES: CC#Cc1c(OC)ccc2c(C(=O)c3cc(OC)c(OC)c(OC)c3)nn(C[N+](C)(C)Cc3c(Br)nc([N+](=O)[O-])n3C)c12
- IC50 [5]: 28 nM
- IC50 [8]: 28 nM
- IC50 [6]: 10 nM

SMILES: COc1cccc2c1C(=O)c1c(O)c3c(c(O)c1C2=O)C[C@@](O)(C(C)=O)C[C@@H]3O[C@H]1C[C@H](NCCCCn2ccnc2[N+](=O)[O-])[C@H](O)[C@H](C)O1
- IC50 [11]: 4 nM
- IC50 [12]: 5700 nM

SMILES: NC(=O)c1cc([N+](=O)[O-])cnc1N1CC1
- IC50 [3]: 198000 nM
- IC50 [4]: 9300 nM
- Ratio IC50 [13]: 21.3

SMILES: CC#Cc1c(OC)ccc2c(C(=O)c3cc(OC)c(OC)c(OC)c3)nn(C[N+](C)(C)Cc3c(-c4ccc(F)cc4)nc([N+](=O)[O-])n3C)c12
- IC50 [5]: 31 nM
- IC50 [8]: 25 nM
- IC50 [6]: 25 nM

SMILES: Cn1cc([N+](=O)[O-])nc1C[N+](C)(C)C/C=C/C(=O)Nc1ccc2ncnc(Nc3cccc(Br)c3)c2c1
- IC50 [7]: 0.22 to 0.56 nM

SMILES: COc1ccc(C[C@@H](C)[C@@H](C)Cc2ccc(OC)c(OCCOCCOCCOCCn3ccnc3[N+](=O)[O-])c2)cc1OC
- IC50 [14]: 53200 nM
- IC50 [15]: 12600 nM

SMILES: NC(=O)c1ccnc(N2CC2)c1[N+](=O)[O-]
- IC50 [3]: 142000 nM
- IC50 [4]: 2700 nM
- Ratio IC50 [13]: 52.5

SMILES: O=[N+]([O-])c1ccc2c(c1)NP(=O)(N(CCCl)CCCl)NC2 (stereo unspecified)
- half-life [16]: 7.8 min

SMILES: Cn1ncc([N+](=O)[O-])c1C[N+](C)(C)C/C=C/C(=O)Nc1ccc2ncnc(Nc3cccc(Br)c3)c2c1
- IC50 [7]: 0.22 to 0.56 nM

SMILES: COc1cccc2c1C(=O)c1c(O)c3c(c(O)c1C2=O)C[C@@](O)(C(C)=O)C[C@@H]3O[C@H]1C[C@H](N(COCCn2ccnc2[N+](=O)[O-])COCCn2ccnc2[N+](=O)[O-])[C@H](O)[C@H](C)O1
- IC50 [11]: 50 nM
- IC50 [12]: 20000 nM

SMILES: COc1cccc2c1C(=O)c1c(O)c3c(c(O)c1C2=O)C[C@@](O)(C(C)=O)C[C@@H]3O[C@H]1C[C@H](n2ccnc2[N+](=O)[O-])[C@H](O)[C@H](C)O1
- IC50 [11]: 12 nM
- IC50 [12]: 2300 nM

SMILES: COc1ccc(C[C@@H](C)[C@@H](C)Cc2ccc(OCCOCCOCCOCCn3ccnc3[N+](=O)[O-])c(OC)c2)cc1OC
- IC50 [14]: 13400 nM
- IC50 [15]: 13400 nM

SMILES: C[N+](C)(C/C=C/C(=O)Nc1ccc2ncnc(Nc3cccc(Br)c3)c2c1)Cc1ccccc1[N+](=O)[O-]
- IC50 [7]: 0.22 to 0.56 nM

SMILES: N#Cc1cc(COP(=O)(NCCBr)NCCBr)sc1[N+](=O)[O-]
- IC50 [2]: 20 nM
- IC50 [3]: 10 nM
- IC50 [4]: 6 nM

SMILES: NC(=O)c1cnc(N2CC2)c([N+](=O)[O-])c1
- IC50 [3]: 143000 nM
- IC50 [4]: 2300 nM
- Ratio IC50 [13]: 62

SMILES: CC#Cc1c(OC)ccc2c(C(=O)c3cc(OC)c(OC)c(OC)c3)nn(Cn3cc[n+](Cc4ccc([N+](=O)[O-])o4)c3)c12
- IC50 [5]: 14 nM
- IC50 [6]: 1 nM

SMILES: CC#Cc1c(OC)ccc2c(C(=O)c3cc(OC)c(OC)c(OC)c3)nn(C[N+](C)(C)Cc3c(-c4ccc(Br)o4)nc([N+](=O)[O-])n3C)c12
- IC50 [5]: 18 nM
- IC50 [6]: 17 nM

SMILES: CC(=O)O[C@H]1C(=O)[C@@]2(C)[C@H]([C@H](OC(=O)c3ccccc3)[C@]3(O)C[C@H](OC(=O)[C@H](OC(=O)N(C)CCN(C)C(=O)OC(C)c4ccc([N+](=O)[O-])c(Oc5ccc6ncccc6c5)c4)[C@@H](NC(=O)c4ccccc4)c4ccccc4)C(C)=C1C3(C)C)[C@]1(OC(C)=O)CO[C@@H]1C[C@@H]2O (stereo partly specified)
- IC50 [2]: 30 nM

SMILES: Cn1c(C[N+](C)(C)C/C=C/C(=O)Nc2ccc3ncnc(Nc4cccc(Br)c4)c3c2)ccc1[N+](=O)[O-]
- IC50 [7]: 0.22 to 0.56 nM

SMILES: CC#Cc1c(OC)ccc2c(C(=O)c3cc(OC)c(OC)c(OC)c3)nn(C[N+](C)(C)Cc3ccc([N+](=O)[O-])o3)c12
- IC50 [5]: 45 nM
- IC50 [6]: 12 nM

SMILES: NC(=O)c1cc(N2CC2)ncc1[N+](=O)[O-]
- IC50 [3]: 19600 nM
- IC50 [4]: 1100 nM

SMILES: COc1ccc(C[C@@H](C)[C@@H](C)Cc2ccc(OC)c(OCCOCCOCCOCCn3cnc([N+](=O)[O-])c3)c2)cc1OC
- IC50 [14]: 64300 nM
- IC50 [15]: 13000 nM

SMILES: Cn1cnc([N+](=O)[O-])c1C[N+](C)(C)C/C=C/C(=O)Nc1ccc2ncnc(Nc3cccc(Br)c3)c2c1
- IC50 [7]: 0.22 to 0.56 nM

SMILES: COc1ccc(C[C@@H](C)[C@@H](C)Cc2ccc(OCCOCCOCCOCCn3cnc([N+](=O)[O-])c3)c(OC)c2)cc1OC
- IC50 [14]: 52100 nM
- IC50 [15]: 12500 nM

SMILES: C=Cc1nc([N+](=O)[O-])n(C)c1C[N+](C)(C)Cn1nc(C(=O)c2cc(OC)c(OC)c(OC)c2)c2ccc(OC)c(C#CC)c21
- IC50 [5]: 48 nM
- IC50 [8]: 20 nM
- IC50 [6]: 7 nM

SMILES: CC(=O)O[C@H]1C(=O)[C@@]2(C)[C@H]([C@H](OC(=O)c3ccccc3)[C@]3(O)C[C@H](OC(=O)[C@H](OC(=O)N(C)CCN(C)C(=O)OCc4ccc([N+](=O)[O-])c(Oc5ccc6ncccc6c5)c4)[C@@H](NC(=O)c4ccccc4)c4ccccc4)C(C)=C1C3(C)C)[C@]1(OC(C)=O)CO[C@@H]1C[C@@H]2O
- IC50 [2]: 30 nM

SMILES: CC(OP(=O)(NCCBr)NCCBr)c1ccc([N+](=O)[O-])s1 (stereo unspecified)
- IC50 [2]: 500 nM
- IC50 [3]: 200 nM
- IC50 [4]: 30 nM

SMILES: NC(=O)c1ccc([N+](=O)[O-])c(N2CC2)n1
- IC50 [3]: 61000 nM
- IC50 [4]: 1700 nM
- Ratio IC50 [13]: 35.9

SMILES: CC#Cc1c(OC)ccc2c(C(=O)c3cc(OC)c(OC)c(OC)c3)nn(C[N+](C)(C)Cc3c(CCC)nc([N+](=O)[O-])n3C)c12
- IC50 [5]: 40 nM
- IC50 [6]: 18 nM

SMILES: FC(F)(F)Oc1ccc(CO[C@@H]2COc3nccn3C2)cc1
- MIC [9]: < 2.8 µM
- MIC [10]: 0.039 to 0.531 µg/mL (≈ 0.124 to 1.69 µM)

SMILES: COc1cc2cc(C(=O)N3CC(CCl)c4c3cc([N+](=O)[O-])c3c(C(C)=O)cccc43)[nH]c2c(OC)c1OC (stereo unspecified)
- IC50 [1]: 500 nM
- IC50 [17]: 680 nM

SMILES: CN(C)CCOc1ccc2[nH]c(C(=O)N3CC(CCl)c4c3cc([N+](=O)[O-])c3c(C#N)cccc43)cc2c1 (stereo unspecified)
- IC50 [1]: 170 nM
- IC50 [17]: 120 nM

SMILES: COC(=O)c1ccc2c3c(cc([N+](=O)[O-])c2c1)N(C(=O)c1cc2cc(OCCN(C)C)ccc2[nH]1)CC3CCl (stereo unspecified)
- IC50 [1]: 440 nM
- IC50 [17]: 320 nM

SMILES: CC(=O)c1ccc2c([N+](=O)[O-])cc3c(c2c1)C(CCl)CN3C(=O)c1cc2cc(OCCN(C)C)ccc2[nH]1 (stereo unspecified)
- IC50 [1]: 210 nM
- IC50 [17]: 150 nM

SMILES: Cn1c(COP(=O)(NCCBr)NCCBr)cnc1[N+](=O)[O-] [EVOFOSFAMIDE]
- IC50 [2]: > 100000 nM
- IC50 [3]: 25000 nM
- IC50 [4]: 2000 nM
